The values below come from patent US20240217966A1, “PHARMACEUTICAL COMPOSITION CONTAINING GLP-1 RECEPTOR AGONIST HAVING FUSED RING” (Shionogi & Co., Ltd., priority 2021, published 2024).

Data set [1] in a line: Metabolism stability test (Test Example 2-2). The note with it: pooled human liver microsomes 0.5 mg protein/mL, 37° C., 30 minutes, 1 mmol/L NADPH (oxidative reaction), compound concentration 0.5 μmol/L. Format: in vitro ADME. The protocol: Test Example 2-2: Metabolism Stability Test
Using commercially available pooled human liver microsomes, a compound of the present invention is reacted for a constant time, and a remaining rate is calculated by comparing a reacted sample and an unreacted sample, thereby, a degree of metabolism in liver is assessed.
A reaction is performed (oxidative reaction) at 37° C. for 0 minute or 30 minutes in the presence of 1 mmol/L NADPH in 0.2 mL of a buffer (50 mmol/L Tris-HCl pH 7.4, 150 mmol/L potassium chloride, 10 mmol/L magnesium chloride) containing 0.5 mg protein/mL of human liver microsomes. After the reaction, 70 μL of the reaction solution is added to 140 μL of a methanol/acetonitrile=1/1 (v/v), mixed and centrifuged at 3000 rpm for 15 minutes. The compound of the present invention in the centrifuged supernatant is quantified by LC/MS/MS or solid-phase extraction (SPE)/MS. The ratio of the amount of the compound after the reaction, with respect to the amount of the compound at 0 minutes of the reaction defined as 100%, is shown as the residual rate. Hydrolysis reaction is performed in the absence of NADPH, and glucuronidation reaction is performed in the presence of 5 mmol/L UDP-glucuronic acid instead of NADPH. Then, the same operation is carried out. The dilution concentration or the dilution solvent are changed as necessary.
The compounds of the present invention were tested essentially as described above.
(Liver microsomes are vesicles of endoplasmic reticulum, rich in cytochrome P450 enzymes.)

Data set [2] has as its target T1, Human GLP-1 receptor (Homo sapiens, UniProt P43220).
T1 construct: expressed in transfected cells
Briefly: Measurement of GLP-1 receptor agonist activity (cAMP assay). Format: cell-based. The gist of the method: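 Agonism measured as cAMP accumulation by time-resolved FRET immunoassay in CHO-K1 cells stably expressing human GLP-1 receptor. Cells treated for 1 h at 37 °C with compound and forskolin (400 μM stock), in buffer containing the PDE inhibitors IBMX (0.1 mM) and RO20-1724 (0.2 mM).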
(cAMP levels reflect the balance of adenylyl cyclase and phosphodiesterase activity.)

T1 sequence (P43220 24-463): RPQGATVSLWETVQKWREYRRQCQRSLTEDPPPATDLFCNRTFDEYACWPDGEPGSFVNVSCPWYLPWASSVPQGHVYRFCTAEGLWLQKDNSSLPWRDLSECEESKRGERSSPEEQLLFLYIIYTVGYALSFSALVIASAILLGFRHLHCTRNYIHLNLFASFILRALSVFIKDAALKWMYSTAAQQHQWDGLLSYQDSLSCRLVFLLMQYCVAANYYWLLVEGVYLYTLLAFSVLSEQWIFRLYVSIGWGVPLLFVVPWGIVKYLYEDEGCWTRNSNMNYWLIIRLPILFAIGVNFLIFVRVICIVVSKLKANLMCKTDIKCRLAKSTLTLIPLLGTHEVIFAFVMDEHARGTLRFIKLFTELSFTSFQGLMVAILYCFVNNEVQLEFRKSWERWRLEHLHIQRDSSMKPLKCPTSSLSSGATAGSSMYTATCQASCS

Regarding `C[C@H]1c2nc(OCc3ccc(Cl)cc3F)c(C(F)(F)F)cc2CCN1Cc1nc2ccc(C(=O)O)c(F)c2n1C[C@@H]1CCO1` [Compound I-160], the “residual rate of the compound” value in data set [1] is given as 92.4%. Besides, the Emax in data set [2] (CHO-K1, hGLP-1R/CHO-K1 cells, cAMP, 100% = human GLP-1 (7-36) at 2 nM, 0% = DMSO only, read-out: Emax(%)) came out at 118%. For the same compound, the concentration giving a half-maximal response (EC50) in data set [2] (hGLP-1R/CHO-K1 cells, cAMP increase, 37° C. 1 hour) worked out at 0.0524 nM.

As a reminder, the Emax is the maximal effect, on the per cent scale that the assay sets. Usually EC50 stands for the concentration giving half of the maximal effect. Low readings indicate an effect from little substance, high ones a need for much substance.
